In patent US20220054513A1, “COMBINATION COMPOSITIONS COMPRISING A BETA-LACTAMASE INHIBITOR” (VenatoRx Pharmaceuticals, Inc., priority 2018, published 2022):
Where two headings read alike, the source gives them in different places.

Legend:
[1] = system: Acinetobacter baumannii-calcoaceticus species complex clinical isolates; assay: MIC of triple combinations (Compound 1, sulbactam, meropenem or cefepime), 141 clinical isolates; type: cell-based; conditions: Cmpd 1 at 4 μg/mL in combinations
Source text: For a more comprehensive assessment of the ability of test compounds to potentiate sulbactam in triple combinations with β-lactams additional MIC assays were utilized.

[2] = system: multi-drug resistant Acinetobacter baumannii; assay: broth microdilution MIC of sulbactam, ampicillin, cefepime and combinations +/- Compound 1, panel of 51 Acinetobacter isolates

CC1(C)[C@H](C(=O)O)N2C(=O)C[C@H]2S1(=O)=O [SUL, Sulbactam]
4 µg/mL: MIC ([2]; read-out: Minimum inhibitory concentration (MIC), strain 0307 (ADC-25, OXA-66, OXA-237)) | MIC ([2]; read-out: Minimum inhibitory concentration (MIC), strain 0312 (OXA-69)) | MIC ([2]; read-out: Minimum inhibitory concentration (MIC), strain 157876 (enzyme content ND)) | MIC ([2]; read-out: Minimum inhibitory concentration (MIC), strain 161752 (enzyme content ND)) | MIC ([2]; read-out: Minimum inhibitory concentration (MIC), strain 161755 (enzyme content ND)) | MIC ([2]; read-out: Minimum inhibitory concentration (MIC), strain 161762 (enzyme content ND))
2 µg/mL: MIC ([2]; read-out: Minimum inhibitory concentration (MIC), strain 0300 (ADC-25, OXA-66)) | MIC ([2]; read-out: Minimum inhibitory concentration (MIC), strain 157834 (enzyme content ND)) | MIC ([2]; read-out: Minimum inhibitory concentration (MIC), strain 157842 (enzyme content ND)) | MIC ([2]; read-out: Minimum inhibitory concentration (MIC), strain 161756 (enzyme content ND))
8 µg/mL: MIC ([1]; Acinetobacter, strain 1037714) | MIC ([1]; Acinetobacter, strain 1040900) | MIC ([2]; read-out: Minimum inhibitory concentration (MIC), strain 0276 (enzyme content ND)) | MIC ([2]; read-out: Minimum inhibitory concentration (MIC), strain 0297 (ADC-25, OXA-23, OXA-66)) | MIC ([2]; read-out: Minimum inhibitory concentration (MIC), strain 0303 (ADC-25, OXA-23, OXA-66)) | MIC ([2]; read-out: Minimum inhibitory concentration (MIC), strain 0304 (ADC-25, OXA-66, OXA-72)) | MIC ([2]; read-out: Minimum inhibitory concentration (MIC), strain 0305 (TEM-1B, OXA-65, OXA-24)) | MIC ([2]; read-out: Minimum inhibitory concentration (MIC), strain 0309 (OXA-23, OXA-82)) | MIC ([2]; read-out: Minimum inhibitory concentration (MIC), strain 161750 (enzyme content ND))
16 µg/mL: MIC ([1]; Acinetobacter, strain 1037193) | MIC ([1]; Acinetobacter, strain 1037256) | MIC ([1]; Acinetobacter, strain 1037462) | MIC ([1]; Acinetobacter, strain 1037731) | MIC ([1]; Acinetobacter, strain 1037732) | MIC ([1]; Acinetobacter, strain 1037738) | MIC ([1]; Acinetobacter, strain 1038418) | MIC ([1]; Acinetobacter, strain 1038439) | MIC ([1]; Acinetobacter, strain 1039514) | MIC ([1]; Acinetobacter, strain 1039518) | MIC ([1]; Acinetobacter, strain 1042182) | MIC50 [2] | MIC ([2]; read-out: Minimum inhibitory concentration (MIC), strain 0283 (TEM-1D, ADC-25, OXA-23, OXA-66)) | MIC ([2]; read-out: Minimum inhibitory concentration (MIC), strain 0285 (TEM-1B, OXA-65, OXA-24)) | MIC ([2]; read-out: Minimum inhibitory concentration (MIC), strain 0286 (ADC-25, OXA-66, OXA-24)) | MIC ([2]; read-out: Minimum inhibitory concentration (MIC), strain 0289 (ADC-25, OXA-66, OXA-72)) | MIC ([2]; read-out: Minimum inhibitory concentration (MIC), strain 0291 (TEM-1D, ADC-25, OXA-23, OXA-66)) | MIC ([2]; read-out: Minimum inhibitory concentration (MIC), strain 0293 (OXA-66, OXA-72)) | MIC ([2]; read-out: Minimum inhibitory concentration (MIC), strain 0294 (TEM-1B, OXA-23, OXA-65)) | MIC ([2]; read-out: Minimum inhibitory concentration (MIC), strain 0301 (ADC-25, OXA-66, OXA-72)) | MIC ([2]; read-out: Minimum inhibitory concentration (MIC), strain 0311 (ADC-25, OXA-23, OXA-82)) | MIC ([2]; read-out: Minimum inhibitory concentration (MIC), strain 157901 (enzyme content ND)) | MIC ([2]; read-out: Minimum inhibitory concentration (MIC), strain 161760 (enzyme content ND))
64 µg/mL: MIC ([1]; Acinetobacter, strain 1035794) | MIC ([1]; Acinetobacter, strain 1036023) | MIC ([1]; Acinetobacter, strain 1036921) | MIC ([1]; Acinetobacter, strain 1037211) | MIC ([1]; Acinetobacter, strain 1037294) | MIC ([1]; Acinetobacter, strain 1037618) | MIC ([1]; Acinetobacter, strain 1039502) | MIC ([1]; Acinetobacter, strain 1040901) | MIC90 [2] | MIC ([2]; read-out: Minimum inhibitory concentration (MIC), strain 0274 (TEM-1D, ADC-25, OXA-66, OXA-72)) | MIC ([2]; read-out: Minimum inhibitory concentration (MIC), strain 0275 (TEM-1D, ADC-25, OXA-23, OXA-66)) | MIC ([2]; read-out: Minimum inhibitory concentration (MIC), strain 0287 (ADC-25, OXA-66, OXA-72)) | MIC ([2]; read-out: Minimum inhibitory concentration (MIC), strain 0296 (ADC-25, OXA-23, OXA-223)) | MIC ([2]; read-out: Minimum inhibitory concentration (MIC), strain 0306 (TEM-1B, OXA-65, OXA-24))
32 µg/mL: MIC ([1]; Acinetobacter, strain 1035788) | MIC ([1]; Acinetobacter, strain 1035808) | MIC ([1]; Acinetobacter, strain 1035825) | MIC ([1]; Acinetobacter, strain 1035900) | MIC ([1]; Acinetobacter, strain 1036045) | MIC ([1]; Acinetobacter, strain 1036068) | MIC ([1]; Acinetobacter, strain 1036734) | MIC ([1]; Acinetobacter, strain 1036768) | MIC ([1]; Acinetobacter, strain 1036781) | MIC ([1]; Acinetobacter, strain 1036859) | MIC ([1]; Acinetobacter, strain 1036882) | MIC ([1]; Acinetobacter, strain 1037251) | MIC ([1]; Acinetobacter, strain 1037593) | MIC ([1]; Acinetobacter, strain 1037747) | MIC ([1]; Acinetobacter, strain 1039515) | MIC ([1]; Acinetobacter, strain 1040916) | MIC ([2]; read-out: Minimum inhibitory concentration (MIC), strain 0273 (ADC-25, OXA-23, OXA-66)) | MIC ([2]; read-out: Minimum inhibitory concentration (MIC), strain 0277 (TEM-1B, OXA-65, OXA-24)) | MIC ([2]; read-out: Minimum inhibitory concentration (MIC), strain 0278 (TEM-1D, ADC-25, OXA-23, OXA-66)) | MIC ([2]; read-out: Minimum inhibitory concentration (MIC), strain 0279 (TEM-1D, ADC-25, OXA-23, OXA-66)) | MIC ([2]; read-out: Minimum inhibitory concentration (MIC), strain 0281 (TEM-1D, ADC-25, OXA-82)) | MIC ([2]; read-out: Minimum inhibitory concentration (MIC), strain 0282 (TEM-1D, ADC-25, OXA-23, OXA-66)) | MIC ([2]; read-out: Minimum inhibitory concentration (MIC), strain 0284 (TEM-1B, OXA-65, OXA-24)) | MIC ([2]; read-out: Minimum inhibitory concentration (MIC), strain 0288 (ADC-25, OXA-23, OXA-66)) | MIC ([2]; read-out: Minimum inhibitory concentration (MIC), strain 0290 (TEM-1D, ADC-25, OXA-23, OXA-66)) | MIC ([2]; read-out: Minimum inhibitory concentration (MIC), strain 0292 (OXA-66, OXA-72)) | MIC ([2]; read-out: Minimum inhibitory concentration (MIC), strain 0295 (TEM-1D, ADC-25, OXA-23, OXA-66)) | MIC ([2]; read-out: Minimum inhibitory concentration (MIC), strain 0298 (TEM-1D, ADC-25, OXA-66, OXA-237)) | MIC ([2]; read-out: Minimum inhibitory concentration (MIC), strain 0299 (PER-7, OXA-23, OXA-203)) | MIC ([2]; read-out: Minimum inhibitory concentration (MIC), strain 0302 (OXA-23, OXA-82)) | MIC ([2]; read-out: Minimum inhibitory concentration (MIC), strain 0308 (TEM-1D, ADC-25, OXA-71)) | MIC ([2]; read-out: Minimum inhibitory concentration (MIC), strain 0310 (OXA-23, OXA-82)) | MIC ([2]; read-out: Minimum inhibitory concentration (MIC), strain 0313 (TEM-1D, OXA-23, OXA-69))
128 µg/mL: MIC ([1]; strain 1002960) | MIC ([1]; strain 1010331) | MIC ([1]; strain 1010950) | MIC ([1]; strain 1019086) | MIC ([1]; strain 1023031) | MIC ([1]; strain 1037479) | MIC ([1]; strain 1040917) | MIC ([2]; read-out: Minimum inhibitory concentration (MIC), strain 0280 (TEM-1D, ADC-25, OXA-66))
